Measured values from patent US12415785B2, “Compound modulators of sting” (CTXT PTY LTD, priority 2019, dated 2025).

Assays:
[1] = target: human STING (HAQ) (Homo sapiens, UniProt Q86WV6, G230A/H232R/R293Q); assay: Surface plasmon resonance (SPR), STING (HAQ); type: binding; settings: biotinylated STING on streptavidin chip, 8° C.
Experimental: Biophysical experiments were performed with three different recombinant human STING protein variants designated according to allelic nomenclature of Yi et al., (2013). Codon optimized DNA sequences (for expression in Escherichia coli) encoding amino acid residues 149 to 345 (Swiss Prot Q86WV6) of human STING (WT), human STING (HAQ) and human STING (R232H) were synthesised by GenScript USA Inc (Piscataway, New Jersey, USA). These were ligated into a modified pET43a E. coli expression vector designed to encode N-terminal His tag followed by tobacco etch virus protease (TEV) cleavage site and a STING gene sequence. The resulting protein sequences for the three allelic variants are listed below:
Binding interactions of ligands with STING proteins were quantified using Surface Plasmon Resonance (SPR) with a minimally biotinylated STING protein immobilized on a streptavidin chip surface. […] Minimal biotinylation of purified huSTING proteins was performed using a previously described methodology (Chhabra 2012). Briefly, approximately 20 nmol of recombinant STING protein in 1×TBS buffer (25 mM Tris-HCl, pH 7.5, 150 mM NaCl, 5 mM DTT) was mixed with of EZ-Link™ Sulfo-NHS-LC-LC-Biotin (Thermofisher Scientific, cat #21338) at a molar ratio of 1 to 0.6 and incubated on ice for 2 hours. To remove any unreacted biotin reagent, protein/biotin mixture was passed through a Superdex 75 (10/300 GL) column equilibrated with 10 mM HEPES, pH7.4, 150 mM NaCl, 5 mM DTT, 5%[v/v] glycerol. A protein peak containing biotinylated huSTING protein was collected and stored in aliquots at −80° C.
Streptavidin was simultaneously immobilized in all four channels of a CM5 sensor chip docked in a Biacore instrument (either Biacore S200 or Biacore T200, GE Healthcare) as described previously (Zender 2013). […]
All binding experiments were performed at 8° C. in SPR binding buffer. To determine binding affinity, compound interaction with immobilized STING protein was analysed using dose-response experiments. […]

[2] = target: human HAQ isoform of STING (THP-1 STING Lucia ISG cells) (Homo sapiens (Human), UniProt Q86WV6, G230A/H232R/R293Q/R71H); assay: THP-1 STING Lucia ISG reporter cell line assay; type: cell-based; settings: 24 h incubation, QUANTI-Luc luminescence
In short: (§1)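 THP-1 STING Lucia ISG cells (HAQ STING) or THP-1-Dual KI-hSTING-R232 cells (WT STING) treated 24 h at 37 °C with 11-point, 2.5-fold compound dilutions. ISG-driven Lucia luciferase read by luminescence, normalised to untreated wells and 40 μM ML RR-S2 CDA positive control; EC50 derived.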

[3] = target: WT human STING isoform (THP-1-Dual KI-hSTING-R232 cells) (Homo sapiens (Human), UniProt Q86WV6, H232R); assay: THP-1-Dual KI-hSTING-R232 reporter cell line assay; type: cell-based; settings: 24 h incubation, QUANTI-Luc luminescence
In short: as §1

Sequence of human HAQ isoform of STING (THP-1 STING Lucia ISG cells) (Q86WV6 whole entry R71H/G230A/H232R/R293Q, canonical isoform): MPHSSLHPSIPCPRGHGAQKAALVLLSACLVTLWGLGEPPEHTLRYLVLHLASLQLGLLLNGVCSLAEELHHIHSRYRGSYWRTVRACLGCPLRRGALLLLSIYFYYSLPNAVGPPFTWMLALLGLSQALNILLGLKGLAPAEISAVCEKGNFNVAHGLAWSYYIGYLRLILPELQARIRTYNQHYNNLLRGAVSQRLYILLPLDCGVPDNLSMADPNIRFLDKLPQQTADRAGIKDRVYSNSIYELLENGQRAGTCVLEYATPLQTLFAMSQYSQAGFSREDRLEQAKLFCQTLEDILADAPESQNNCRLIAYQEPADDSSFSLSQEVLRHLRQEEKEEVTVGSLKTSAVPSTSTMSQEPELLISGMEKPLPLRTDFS
Sequence of human STING (HAQ) (Q86WV6 whole entry G230A/H232R/R293Q, looked up, the tested form may be a part): as the sequence (Q86WV6 whole entry R71H/G230A/H232R/R293Q, canonical isoform) above, with H71R counted along it
Sequence of WT human STING isoform (THP-1-Dual KI-hSTING-R232 cells) (Q86WV6 whole entry H232R, canonical isoform): as the sequence (Q86WV6 whole entry R71H/G230A/H232R/R293Q, canonical isoform) above, with H71R, A230G, Q293R counted along it

Kd [1] [µM]	EC50 [2] [µM]	EC50 [3] [µM]	SMILES
> 10	> 40	> 40	NC(=O)c1ccc2c(c1)nc(-c1cc(Br)ccc1C(=O)O)n2CCn1c(-c2cc(Br)ccc2C(=O)O)nc2cc(C(N)=O)ccc21 [Example 3, 2,2′-(Ethane-1,2-diylbis(5-carbamoyl-1H-benzo[d]imidazole-1,2-diyl))bis(4-bromobenzoic acid)]
> 100	> 40	> 40	COc1c(C(N)=O)ccc2c1nc(-c1ccc(C(F)(F)F)cc1C(=O)O)n2CCn1c(-c2ccc(C(F)(F)F)cc2C(=O)O)nc2c(OC)c(C(N)=O)ccc21 [Example 38, 6,6′-(Ethane-1,2-diylbis(5-carbamoyl-4-methoxy-1H-benzo[d]imidazole-1,2-diyl))bis(3-(trifluoromethyl)benzoic acid)]
0.2	> 40	> 40	COc1c(C(N)=O)ccc2c1nc(-c1ccc(Cl)c(Cl)c1-c1nn[nH]n1)n2CCn1c(-c2ccc(Cl)c(Cl)c2-c2nn[nH]n2)nc2c(OC)c(C(N)=O)ccc21 [Example 37, 1,1′-(Ethane-1,2-diyl)bis(2-(3,4-dichloro-2-(2H-tetrazol-5-yl)phenyl)-4-methoxy-1H-benzo[d]imidazole-5-carboxamide)]
